Test results: patent US20100028447A1, “Intranasal, Buccal, And Sublingual Administration Of Metanicotine Analogs” (TARGACEPT, INC., priority 2007, published 2010)
Values joined by “and” are separate entries in the source; they are usually repeats but may differ in a detail not shown here. Equal values may be shown once. Read-outs that look alike come from different tables or passages of the source.

Experiment: Brain-to-plasma ratio of Compound C after oral gavage or intranasal administration (Example 5)
Type: in vivo, Sprague-Dawley rats
Details: for concentration at 10 min / concentration at 30 min / concentration at 60 min / Kp at […] / Kp at 0.5 h / Kp at 1 h: Sprague-Dawley
Protocol: Three treatment groups of nine rats each were used (see Study Design, Table 9). […] The animals were housed up to three per cage and identified by cage labels. A single room was used for this study. […] Food was withheld from the animals for a minimum of 12 hours before the study and during the study, and was returned at 4 hours post-dose. Water was supplied ad libitum during the study.
All dosing solutions were prepared in isotonic PBS (phosphate buffered saline) buffer at pH 7.4. […] For intranasal dosing, the animals were anesthetized with CO2 prior to dosing, and the solution was administered in a 25 μL droplet from a pipette.
For each treatment group, brain and plasma samples were collected at 10, 30 and 60 minutes post-dose. Blood samples were placed in heparinized tubles and spun at 13,000 rpm for 5 minutes. The plasma was placed in polyethylene tubes and frozen (−60 to −80° C.). Brain samples were also placed in chilled tubes and frozen (−60 to −80° C.). Samples remained chilled during subsequent processing.
Brain samples were thawed and weighed. […] After homogenation, the volume of each sample was recorded and the samples were frozen at −80° C. until analysis.
Plastic tubes were used for all steps. Standards were prepared at concentrations of 1000, 500, 250, 100, 50, 10, 5, and 1 ng/mL by serial dilution. Quality control samples were also prepared at 500, 100, and 5 ng/mL. […] Brain standards and quality control samples were treated identically to the test compound samples.
Brain samples (200 μL) were loaded onto a 96 well plate and then transferred to 400 μL of acetonitrile containing internal standard (100 ng/mL Pindolol) in a Sirocco Protein Precipitation Plate (Waters Corporation). The resulting suspensions were mixed, then filtered into a clean 96-well collection plate using a vacuum and transferred (100 μL) to plastic HPLC vials for analysis.
Brain samples (50 μL) were loaded onto a 96 well plate and then transferred to 150 μL of acetonitrile containing internal standard (100 ng/mL Pindolol) in a Sirocco Protein Precipitation Plate (Waters Corporation). The resulting suspensions were mixed, then filtered into a clean 96-well collection plate using a vacuum and transferred (100 μL) to plastic HPLC vials for analysis.

[1] = 1 mg/kg intranasal dose, 10 min
[2] = 1 mg/kg intranasal dose, 30 min
[3] = 1 mg/kg intranasal dose, 60 min
[4] = 5 mg/kg intranasal dose, 10 min
[5] = 5 mg/kg intranasal dose, 60 min

CN[C@@H](C)C/C=C/c1cncc(OC(C)C)c1 [Compound C, (2S)-(4E)-N-methyl-5-(3-(5-isopropoxypyridin)yl)-4-penten-2-amine]
Brain-to-Plasma Ratio [1]: 1.55 and 1.68 | Mean Ratio (brain-to-plasma) [1]: 1.97 | Brain-to-Plasma Ratio [2]: 1.69 and 2.36 | Mean Ratio (brain-to-plasma) [2]: 2.27 | Plasma Conc. [2]: 118 ng/mL and 86.8 ng/mL | Brain-to-Plasma Ratio [3]: 1.86 and 2.57 | Mean Ratio (brain-to-plasma) [3]: 2.12 | Plasma Conc. [3]: 66 ng/mL and 37.8 ng/mL | Brain-to-Plasma Ratio [4]: 0.99 | Plasma Conc. [4]: 1570 ng/mL and 1700 ng/mL | Brain-to-Plasma Ratio (5 mg/kg intranasal dose, 30 min): 3.58 and 2.11 | Brain-to-Plasma Ratio [5]: 3.26 and 1.95 | Mean Ratio (brain-to-plasma) [5]: 2.41 | Plasma Conc. [5]: 175 ng/mL and 119 ng/mL | Brain-to-Plasma Ratio (5 mg/kg oral dose, 30 min): 2.65 and 1.67 | Mean Ratio (brain-to-plasma) (5 mg/kg oral dose, 30 min): 2.21 | Brain-to-Plasma Ratio (5 mg/kg oral dose, 60 min): 3.95 | Mean Ratio (brain-to-plasma) (5 mg/kg oral dose, 60 min): 3.55 | 5 mg/kg IN/5 mg/kg PO, Brain (30 min): 1.0 | 5 mg/kg IN/5 mg/kg PO, Plasma (30 min): 0.7 | 5 mg/kg IN/5 mg/kg PO, Brain (60 min): 0.7 | 5 mg/kg IN/5 mg/kg PO, Plasma (60 min): 1.0 | concentration at 10 min (rat, brain homogenate, oral, 5 mg/kg, 5 mg/kg oral dose, 10 min, read-out: Brain Conc.): 45.4 ng/mL | concentration at 30 min (rat, brain homogenate, oral, 5 mg/kg, 5 mg/kg oral dose, 30 min, read-out: Brain Conc.): 205 ng/mL | concentration at 10 min (rat, brain homogenate, other: intranasal, 1 mg/kg, 1 mg/kg intranasal dose, 10 min, read-out: Brain Conc.): 47.6 ng/mL | concentration at 30 min (rat, brain homogenate, other: intranasal, 1 mg/kg, 1 mg/kg intranasal dose, 30 min, read-out: Brain Conc.): 43.7 ng/mL | concentration at 60 min (rat, brain homogenate, other: intranasal, 1 mg/kg, 1 mg/kg intranasal dose, 60 min, read-out: Brain Conc.): 17.7 ng/mL | concentration at 10 min (rat, brain homogenate, other: intranasal, 5 mg/kg, 5 mg/kg intranasal dose, 10 min, read-out: Brain Conc.): 269 ng/mL | Kp at […] (rat, brain, inhaled or intranasal, 1 mg/kg, 1 mg/kg intranasal dose, 10 min, read-out: Mean Ratio (brain-to-plasma)): 2 | Kp at 0.5 h (rat, brain, inhaled or intranasal, 1 mg/kg, 1 mg/kg intranasal dose, 30 min, read-out: Mean Ratio (brain-to-plasma)): 2.8 | Kp at 1 h (rat, brain, inhaled or intranasal, 1 mg/kg, 1 mg/kg intranasal dose, 60 min, read-out: Mean Ratio (brain-to-plasma)): 2.4 | Kp at […] (rat, brain, inhaled or intranasal, 5 mg/kg, 5 mg/kg intranasal dose, 10 min, read-out: Mean Ratio (brain-to-plasma)): 1.2 | Kp at 0.5 h (rat, brain, inhaled or intranasal, 5 mg/kg, 5 mg/kg intranasal dose, 30 min, read-out: Mean Ratio (brain-to-plasma)): 2.8 | Kp at 1 h (rat, brain, inhaled or intranasal, 5 mg/kg, 5 mg/kg intranasal dose, 60 min, read-out: Mean Ratio (brain-to-plasma)): 2.4 | concentration at 10 min (rat, brain, oral, 5 mg/kg, 5 mg/kg oral dose, 10 min, read-out: Brain Conc.): 227 ng/g | concentration at 30 min (rat, brain, oral, 5 mg/kg, 5 mg/kg oral dose, 30 min, read-out: Brain Conc.): 1020 ng/g | concentration at 10 min (rat, brain, other: intranasal, 1 mg/kg, 1 mg/kg intranasal dose, 10 min, read-out: Brain Conc.): 238 ng/g | concentration at 30 min (rat, brain, other: intranasal, 1 mg/kg, 1 mg/kg intranasal dose, 30 min, read-out: Brain Conc.): 219 ng/g | concentration at 60 min (rat, brain, other: intranasal, 1 mg/kg, 1 mg/kg intranasal dose, 60 min, read-out: Brain Conc.): 89 ng/g | concentration at 10 min (rat, brain, other: intranasal, 1 mg/kg, intranasal 1 mg/kg, 10 minutes, read-out: Average brain levels): 136 ng/g | concentration at 30 min (rat, brain, other: intranasal, 1 mg/kg, intranasal 1 mg/kg, 30 minutes, read-out: Average brain levels): 95 ng/g | concentration at 60 min (rat, brain, other: intranasal, 1 mg/kg, intranasal 1 mg/kg, 60 minutes, read-out: Average brain levels): 50 ng/g | concentration at 10 min (rat, brain, other: intranasal, 5 mg/kg, 5 mg/kg intranasal dose, 10 min, read-out: Brain Conc.): 1340 ng/g | concentration at 10 min (rat, brain, other: intranasal, 5 mg/kg, intranasal 5 mg/kg, 10 minutes, read-out: Average brain levels): 1750 ng/g | concentration at 30 min (rat, brain, other: intranasal, 5 mg/kg, intranasal 5 mg/kg, 30 minutes, read-out: Average brain levels): 1160 ng/g | concentration at 60 min (rat, brain, other: intranasal, 5 mg/kg, intranasal 5 mg/kg, 60 minutes, read-out: Average brain levels): 382 ng/g | concentration at 10 min (rat, brain, po, 5 mg/kg, oral gavage 5 mg/kg, 10 minutes, read-out: Average brain levels): 225 ng/g | concentration at 30 min (rat, brain, po, 5 mg/kg, oral gavage 5 mg/kg, 30 minutes, read-out: Average brain levels): 1170 ng/g | concentration at 60 min (rat, brain, po, 5 mg/kg, oral gavage 5 mg/kg, 60 minutes, read-out: Average brain levels): 571 ng/g | Kp at […] (rat, brain/plasma, inhaled or intranasal, 1 mg/kg, 1 mg/kg intranasal dose, 10 min, read-out: Brain-to-Plasma Ratio): 2.7 | Kp at 0.5 h (rat, brain/plasma, inhaled or intranasal, 1 mg/kg, 1 mg/kg intranasal dose, 30 min, read-out: Brain-to-Plasma Ratio): 2.78 | Kp at 1 h (rat, brain/plasma, inhaled or intranasal, 1 mg/kg, 1 mg/kg intranasal dose, 60 min, read-out: Brain-to-Plasma Ratio): 1.92 | Kp at […] (rat, brain/plasma, inhaled or intranasal, 5 mg/kg, 5 mg/kg intranasal dose, 10 min, read-out: Brain-to-Plasma Ratio): 1.42 | Kp at 0.5 h (rat, brain/plasma, inhaled or intranasal, 5 mg/kg, 5 mg/kg intranasal dose, 30 min, read-out: Brain-to-Plasma Ratio): 2.63 | Kp at 1 h (rat, brain/plasma, inhaled or intranasal, 5 mg/kg, 5 mg/kg intranasal dose, 60 min, read-out: Brain-to-Plasma Ratio): 2.03 | Kp at […] (rat, brain/plasma, po, 5 mg/kg, 5 mg/kg oral dose, 10 min, read-out: Mean Ratio (brain-to-plasma)): 0.8 | Kp at 0.5 h (rat, brain/plasma, po, 5 mg/kg, 5 mg/kg oral dose, 30 min, read-out: Brain-to-Plasma Ratio): 2.31 | Kp at 0.5 h (rat, brain/plasma, po, 5 mg/kg, 5 mg/kg oral dose, 30 min, read-out: Mean Ratio (brain-to-plasma)): 2.2 | Kp at 1 h (rat, brain/plasma, po, 5 mg/kg, 5 mg/kg oral dose, 60 min, read-out: Brain-to-Plasma Ratio): 3.89 | Kp at 1 h (rat, brain/plasma, po, 5 mg/kg, 5 mg/kg oral dose, 60 min, read-out: Mean Ratio (brain-to-plasma)): 3.5 | Kp at […] (rat, brain/plasma, po, 5 mg/kg, 10 min, read-out: 5 mg/kg IN/5 mg/kg PO, Ratio (brain to plasma)): 1.5 | Kp at 0.5 h (rat, brain/plasma, po, 5 mg/kg, 30 min, read-out: 5 mg/kg IN/5 mg/kg PO, Ratio (brain to plasma)): 1.3 | Kp at 1 h (rat, brain/plasma, po, 5 mg/kg, 60 min, read-out: 5 mg/kg IN/5 mg/kg PO, Ratio (brain to plasma)): 0.7 | concentration at 30 min (rat, plasma, other: intranasal, 1 mg/kg, 1 mg/kg intranasal dose, 30 min, read-out: Plasma Conc.): 78.7 ng/mL | concentration at 60 min (rat, plasma, other: intranasal, 1 mg/kg, 1 mg/kg intranasal dose, 60 min, read-out: Plasma Conc.): 46 ng/mL | concentration at 10 min (rat, plasma, other: intranasal, 1 mg/kg, intranasal 1 mg/kg, 10 minutes, read-out: Average plasma levels): 250 ng/mL | concentration at 30 min (rat, plasma, other: intranasal, 1 mg/kg, intranasal 1 mg/kg, 30 minutes, read-out: Average plasma levels): 208 ng/mL | concentration at 60 min (rat, plasma, other: intranasal, 1 mg/kg, intranasal 1 mg/kg, 60 minutes, read-out: Average plasma levels): 103 ng/mL | concentration at 10 min (rat, plasma, other: intranasal, 5 mg/kg, 5 mg/kg intranasal dose, 10 min, read-out: Plasma Conc.): 1120 ng/mL | concentration at 60 min (rat, plasma, other: intranasal, 5 mg/kg, 5 mg/kg intranasal dose, 60 min, read-out: Plasma Conc.): 170 ng/mL | concentration at 10 min (rat, plasma, other: intranasal, 5 mg/kg, intranasal 5 mg/kg, 10 minutes, read-out: Average plasma levels): 1460 ng/mL | concentration at 30 min (rat, plasma, other: intranasal, 5 mg/kg, intranasal 5 mg/kg, 30 minutes, read-out: Average plasma levels): 421 ng/mL | concentration at 60 min (rat, plasma, other: intranasal, 5 mg/kg, intranasal 5 mg/kg, 60 minutes, read-out: Average plasma levels): 155 ng/mL | concentration at 10 min (rat, plasma, po, 5 mg/kg, oral gavage 5 mg/kg, 10 minutes, read-out: Average plasma levels): 312 ng/mL | concentration at 30 min (rat, plasma, po, 5 mg/kg, oral gavage 5 mg/kg, 30 minutes, read-out: Average plasma levels): 578 ng/mL | concentration at 60 min (rat, plasma, po, 5 mg/kg, oral gavage 5 mg/kg, 60 minutes, read-out: Average plasma levels): 155 ng/mL | Intranasal absorption into the brain and bloodstream compared with oral administration (rat, in vivo, po): much faster
